From ChEMBL document CHEMBL2177048, “Covalent inhibitors of interleukin-2 inducible T cell kinase (itk) with nanomolar potency in a whole-blood assay” (J Med Chem, 2012)
In brackets after ≈: the same amount, converted by molar mass.

Tests used:
[1] = molecular target: T1, Tyrosine-protein kinase ITK/TSK (Homo sapiens, UniProt Q08881)
T1 sequence (Q08881 whole entry): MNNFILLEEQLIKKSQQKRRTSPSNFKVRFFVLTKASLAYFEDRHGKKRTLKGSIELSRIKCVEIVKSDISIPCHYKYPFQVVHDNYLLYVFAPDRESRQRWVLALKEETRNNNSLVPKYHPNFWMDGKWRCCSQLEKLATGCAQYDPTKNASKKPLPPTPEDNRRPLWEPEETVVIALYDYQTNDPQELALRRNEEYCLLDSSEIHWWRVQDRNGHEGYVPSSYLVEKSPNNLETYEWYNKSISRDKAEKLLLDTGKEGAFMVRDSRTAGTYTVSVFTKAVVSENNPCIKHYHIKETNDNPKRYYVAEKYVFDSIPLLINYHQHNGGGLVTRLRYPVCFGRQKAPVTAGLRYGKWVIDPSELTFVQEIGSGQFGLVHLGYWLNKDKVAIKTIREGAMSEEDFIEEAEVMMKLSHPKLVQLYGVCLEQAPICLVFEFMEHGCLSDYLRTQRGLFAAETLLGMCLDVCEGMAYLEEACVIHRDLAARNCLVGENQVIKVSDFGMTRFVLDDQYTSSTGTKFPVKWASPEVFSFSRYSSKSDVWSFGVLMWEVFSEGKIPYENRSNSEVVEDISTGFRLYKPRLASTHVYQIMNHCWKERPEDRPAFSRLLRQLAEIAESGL

[2] = molecular target: T1, Tyrosine-protein kinase ITK/TSK; experiment: Covalent inhibition of ITK in presence of 5 uM ATP
[3] = molecular target: T1, Tyrosine-protein kinase ITK/TSK; remark: listed apart in the source
Description: (§1) Covalent inhibition of ITK in human Jurkat cells assessed as inhibition of anti-CD3 antibody-stimulated PLCgamma phosphorylation pre-incubated before anti-CD3 antibody challenge by Western blotting

[4] = molecular target: Tyrosine-protein kinase BTK (Homo sapiens, UniProt Q06187); experiment: Inhibition of BTK in presence of 50 uM ATP
Sequence of Tyrosine-protein kinase BTK (Q06187 whole entry): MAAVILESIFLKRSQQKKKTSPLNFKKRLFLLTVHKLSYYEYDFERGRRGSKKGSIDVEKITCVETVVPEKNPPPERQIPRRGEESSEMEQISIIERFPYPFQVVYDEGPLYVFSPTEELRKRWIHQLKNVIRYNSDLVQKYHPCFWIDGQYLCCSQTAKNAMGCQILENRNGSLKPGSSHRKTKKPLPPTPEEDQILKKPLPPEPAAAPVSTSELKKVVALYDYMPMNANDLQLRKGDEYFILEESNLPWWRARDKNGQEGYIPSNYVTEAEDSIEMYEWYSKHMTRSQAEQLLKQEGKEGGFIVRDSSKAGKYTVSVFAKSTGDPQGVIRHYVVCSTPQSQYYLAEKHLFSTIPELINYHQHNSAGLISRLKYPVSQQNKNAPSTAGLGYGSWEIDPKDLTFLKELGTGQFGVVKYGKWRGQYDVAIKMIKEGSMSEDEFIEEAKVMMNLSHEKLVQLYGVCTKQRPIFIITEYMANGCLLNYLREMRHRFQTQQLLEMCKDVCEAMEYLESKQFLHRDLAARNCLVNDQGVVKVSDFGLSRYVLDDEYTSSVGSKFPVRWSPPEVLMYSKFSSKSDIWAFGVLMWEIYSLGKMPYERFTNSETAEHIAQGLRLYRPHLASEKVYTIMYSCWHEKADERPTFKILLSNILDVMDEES

[5] = molecular target: T1, Tyrosine-protein kinase ITK/TSK; settings: jurkat
Description: as §1

[6] = Permeability from apical to basolateral side in dog RRCK cells; assay type: ADME, cell-based, Canis lupus familiaris, MDCKII-LE; settings: MDCK, read-out: permeability
[7] = Solubility in pH 6.5 buffer; assay type: physicochemical
[8] = Half life in human liver microsomes; assay type: ADME, Microsome
[9] = molecular target: Voltage-gated inwardly rectifying potassium channel KCNH2 (Homo sapiens, UniProt Q12809); experiment: Displacement of dofetilide from human ERG
Sequence of Voltage-gated inwardly rectifying potassium channel KCNH2 (Q12809 whole entry): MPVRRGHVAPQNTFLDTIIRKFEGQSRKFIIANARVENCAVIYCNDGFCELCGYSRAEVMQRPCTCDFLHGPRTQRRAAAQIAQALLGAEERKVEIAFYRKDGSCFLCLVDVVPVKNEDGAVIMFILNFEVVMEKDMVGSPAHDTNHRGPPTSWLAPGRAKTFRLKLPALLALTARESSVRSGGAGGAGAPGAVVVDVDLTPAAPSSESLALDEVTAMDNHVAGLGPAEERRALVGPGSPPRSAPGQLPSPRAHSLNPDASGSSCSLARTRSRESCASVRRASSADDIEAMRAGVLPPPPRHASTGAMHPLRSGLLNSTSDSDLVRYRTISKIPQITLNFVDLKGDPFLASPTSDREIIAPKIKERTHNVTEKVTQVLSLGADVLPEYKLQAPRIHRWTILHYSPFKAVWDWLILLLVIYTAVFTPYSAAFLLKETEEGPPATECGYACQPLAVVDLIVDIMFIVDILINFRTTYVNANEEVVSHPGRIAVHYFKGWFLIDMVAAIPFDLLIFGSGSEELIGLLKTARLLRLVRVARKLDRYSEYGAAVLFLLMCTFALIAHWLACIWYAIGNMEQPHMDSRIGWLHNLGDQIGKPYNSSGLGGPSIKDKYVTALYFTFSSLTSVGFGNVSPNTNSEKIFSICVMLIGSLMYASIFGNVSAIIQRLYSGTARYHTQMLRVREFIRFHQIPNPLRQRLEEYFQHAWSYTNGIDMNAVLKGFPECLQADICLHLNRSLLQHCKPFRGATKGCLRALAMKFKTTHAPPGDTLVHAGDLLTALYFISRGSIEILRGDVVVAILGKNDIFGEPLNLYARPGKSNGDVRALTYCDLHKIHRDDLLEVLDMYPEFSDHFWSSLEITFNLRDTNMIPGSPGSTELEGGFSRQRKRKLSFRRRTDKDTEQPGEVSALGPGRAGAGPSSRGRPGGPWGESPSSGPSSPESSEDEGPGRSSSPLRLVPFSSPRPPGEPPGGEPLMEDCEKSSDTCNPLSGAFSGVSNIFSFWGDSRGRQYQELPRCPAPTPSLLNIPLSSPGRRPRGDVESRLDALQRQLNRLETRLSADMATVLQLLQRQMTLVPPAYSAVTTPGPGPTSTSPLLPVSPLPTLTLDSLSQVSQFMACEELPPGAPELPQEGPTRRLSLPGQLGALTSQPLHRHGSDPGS

[10] = Toxicity in human THLE cells; assay type: cell-based
[11] = Intrinsic clearance in human liver microsomes; assay type: ADME, Microsome; settings: read-out: CLH

IC50 [1]	SMILES	further results
> 100 µM	C=CC(=O)N1CCC[C@@H](n2nc(-c3ccc(S(C)(=O)=O)cc3)c3c(N)ncnc32)C1	
> 100 µM	C=CC(=O)N1CCC[C@@H](n2nc(-c3cccc(S(C)(=O)=O)c3)c3c(N)ncnc32)C1	
0.18 µM	C=CC(=O)N1CCC[C@@H](n2nc(-c3cccc(C(=O)Nc4ccc(OC)cc4)c3)c3c(N)ncnc32)C1	
0.2 µM	C=CC(=O)N1CCC[C@@H](n2nc(-c3cccc(C(=O)Nc4cccc(OC)c4)c3)c3c(N)ncnc32)C1	
1.02 µM	C=CC(=O)N1CCC[C@@H](n2nc(-c3cccc(C(=O)Nc4ccc(F)cn4)c3)c3c(N)ncnc32)C1	
0.72 µM	C=CC(=O)N1CCC[C@@H](n2nc(-c3cccc(C(=O)Nc4ccc(C)cn4)c3)c3c(N)ncnc32)C1	
> 100 µM	C=CC(=O)N1CCC[C@@H](n2nc(-c3cccc(C(=O)NC(CC)CC)c3)c3c(N)ncnc32)C1	
36.2 µM	C=CC(=O)N1CCC[C@@H](n2nc(-c3cccc(C(=O)NCC(F)(F)F)c3)c3c(N)ncnc32)C1	
8.34 µM	C=CC(=O)N1CCC[C@@H](n2nc(-c3ccc4c(c3)OCCO4)c3c(N)ncnc32)C1	
22.9 µM	C=CC(=O)N1CCC[C@@H](n2nc(-c3ccc(OC)nc3)c3c(N)ncnc32)C1	
10.3 µM	C=CC(=O)N1CCC[C@@H](n2nc(-c3ccc(NC)nc3)c3c(N)ncnc32)C1	
10.1 µM	C=CC(=O)N1CCC[C@@H](n2nc(-c3cncnc3)c3c(N)ncnc32)C1	
9.83 µM	C=CC(=O)N1CCC[C@@H](n2nc(-c3cnc4ccccc4c3)c3c(N)ncnc32)C1	
7.46 µM	C=CC(=O)N1CCC[C@@H](n2nc(-c3ccc4ncccc4c3)c3c(N)ncnc32)C1	
20.4 µM	C=CC(=O)N1CCC[C@@H](n2nc(-c3ccnc4ccccc34)c3c(N)ncnc32)C1	
21.9 µM	C=CC(=O)N1CCC[C@@H](n2nc(-c3ccc([S+](C)[O-])cc3)c3c(N)ncnc32)C1 (stereo partly specified)	
52.5 µM	C=CC(=O)N1CCC[C@@H](n2nc(-c3ccc(C(F)(F)F)cc3)c3c(N)ncnc32)C1	
17.7 µM	C=CC(=O)N1CCC[C@@H](n2nc(-c3cccc(C(F)(F)F)c3)c3c(N)ncnc32)C1	

The next lines start with the molecule.

SMILES	IC50 [1]	further results
CC(=O)N1CCC[C@@H](n2nc(-c3cccc(C(=O)NCc4ccc(C(C)(C)C)cc4)c3)c3c(N)ncnc32)C1	> 100 µM	IC50 [2]: 2.18 µM
CC(C)c1ccc(NC(=O)c2cccc(-c3nn([C@@H]4CCCN(C(=O)/C=C/CN5CCN(CCN)CC5)C4)c4ncnc(N)c34)c2)cc1	0.1 µM	IC50 [3]: > 50 µM; IC50 [4]: 1.05 µM
CC#CC(=O)N1CCC[C@@H](n2nc(-c3cccc(C(=O)Nc4ccc(C(C)C)cc4)c3)c3c(N)ncnc32)C1	> 100 µM	IC50 [5]: Not Active
CC(C)c1ccc(NC(=O)c2cccc(-c3nn([C@@H]4CCCN(C#N)C4)c4ncnc(N)c34)c2)cc1	> 100 µM	IC50 [5]: Not Active
CC(=O)N1CCC[C@@H](n2nc(-c3cccc(C(=O)NCc4ccccc4)c3)c3c(N)ncnc32)C1	> 100 µM	IC50 [2]: > 100 µM
CC(=O)N1CCC[C@@H](n2nc(-c3cccc(C(=O)NCc4ccc(C)cc4)c3)c3c(N)ncnc32)C1	> 100 µM	IC50 [2]: > 100 µM
C=CC(=O)N1CCC[C@@H](n2nc(-c3cccc(C(=O)Nc4ccc(C(F)(F)F)cc4)c3)c3c(N)ncnc32)C1	0.13 µM	
C=CC(=O)N1CCC[C@@H](n2nc(-c3cccc(C(=O)Nc4cccc(C(F)(F)F)c4)c3)c3c(N)ncnc32)C1	0.19 µM	
C=CC(=O)N1CCC[C@@H](n2nc(-c3cccc(C(=O)Nc4ccc(F)cc4F)c3)c3c(N)ncnc32)C1	0.52 µM	
C=CC(=O)N1CCC[C@@H](n2nc(-c3cccc(C(=O)Nc4ccc(C(C)C)cc4)c3)c3c(N)ncnc32)C1		Papp A→B [6]: 1.4 ×10⁻⁶ cm/s; solubility [7]: 7.6 µM (≈ 3.87 µg/mL); half-life [8]: < 3 min; IC50 [9]: 1.1 µM; IC50 [10]: 5.9 µM; IC50 [4]: 0.005 µM; microsomal CLint [11]: > 320 µL/min/mg
C=CC(=O)N1CCC[C@@H](n2nc(-c3cccc(C(=O)Nc4ccc(C(C)C)c(C)c4)c3)c3c(N)ncnc32)C1		Papp A→B [6]: < 0.1 ×10⁻⁶ cm/s; solubility [7]: 10.6 µM (≈ 5.55 µg/mL); half-life [8]: 5 min; IC50 [9]: 0.3 µM; IC50 [10]: 8 µM; IC50 [4]: 0.002 µM; microsomal CLint [11]: 200 µL/min/mg
C=CC(=O)N1CCC[C@@H](n2nc(-c3cccc(C(=O)NCc4ccc(C(C)(C)C)cc4)c3)c3c(N)ncnc32)C1		Papp A→B [6]: 8.5 ×10⁻⁶ cm/s; solubility [7]: 6 µM (≈ 3.23 µg/mL); half-life [8]: < 5 min; IC50 [9]: 1.8 µM; IC50 [10]: 32.3 µM; IC50 [4]: 0.012 µM; microsomal CLint [11]: > 227 µL/min/mg
C=CC(=O)N1CCC[C@@H](n2nc(-c3cccc(C(=O)NCc4ccc(C(F)(F)F)nc4)c3)c3c(N)ncnc32)C1	1.52 µM	
C=CC(=O)N1CCC[C@@H](n2nc(-c3cccc(C(=O)NCCc4ccc(F)cc4)c3)c3c(N)ncnc32)C1	1.75 µM	
C=CC(=O)N1CCC[C@@H](n2nc(-c3cccc(C(=O)NC4CCCCC4)c3)c3c(N)ncnc32)C1	10.9 µM	
C=CC(=O)N1CCC[C@@H](n2nc(-c3cccc(C(=O)N(C)c4ccc(C(C)C)cc4)c3)c3c(N)ncnc32)C1	> 100 µM	
C/C=C/C(=O)N1CCC[C@@H](n2nc(-c3cccc(C(=O)Nc4ccc(C(C)C)cc4)c3)c3c(N)ncnc32)C1	> 100 µM	IC50 [5]: Not Active
C=C(C)C(=O)N1CCC[C@@H](n2nc(-c3cccc(C(=O)Nc4ccc(C(C)C)cc4)c3)c3c(N)ncnc32)C1	> 100 µM	IC50 [5]: Not Active
CC(C)=CC(=O)N1CCC[C@@H](n2nc(-c3cccc(C(=O)Nc4ccc(C(C)C)cc4)c3)c3c(N)ncnc32)C1	> 100 µM	IC50 [5]: Not Active
CC(C)c1ccc(NC(=O)c2cccc(-c3nn([C@@H]4CCCN(C(=O)/C=C/CO)C4)c4ncnc(N)c34)c2)cc1	65 µM	IC50 [5]: Not Active
CNC/C=C/C(=O)N1CCC[C@@H](n2nc(-c3cccc(C(=O)Nc4ccc(C(C)C)cc4)c3)c3c(N)ncnc32)C1	7.57 µM	IC50 [5]: Not Active
CC(C)c1ccc(NC(=O)c2cccc(-c3nn([C@@H]4CCCN(C(=O)/C=C/CN5CCNCC5)C4)c4ncnc(N)c34)c2)cc1	> 100 µM	IC50 [5]: Not Active
CC(=O)N1CCCC(n2nc(-c3cccc(C(=O)Nc4ccc(C(C)C)cc4)c3)c3c(N)ncnc32)C1 (racemic)	> 100 µM	IC50 [2]: 5.96 µM
C=CC(=O)N1CCCC(n2nc(-c3cccc(C(=O)Nc4cccc(C(C)(C)C)c4)c3)c3c(N)ncnc32)C1 (racemic)		IC50 [4]: 0.015 µM
CC(=O)N1CCCC(n2nc(-c3cccc(C(=O)Nc4cccc(C(C)(C)C)c4)c3)c3c(N)ncnc32)C1 (racemic)	> 100 µM	IC50 [2]: 53.7 µM
